# Measured values as given in patent publication US20210123066A1, “METHODS OF REGENERATION AND TRANSFORMATION OF STEVIA PLANT AND TRANSGENIC STEVIA PLANTS HAVING ENHANCED STEVIOL GLYCOSIDES CONTENT” (TEMASEK LIFE SCIENCES LABORATORY LIMITED, priority 2018, published 2021).
# System: SrUGT76G1
# Experiment: In vitro UDP-glucosyltransferase activity assay with GST-SrUGT76G1
# Format: biochemical, Stevia rebaudiana
# Conditions: for product formed by GST-UGT76G1 from the acceptor (HPLC): 5 mM UDP-glucose, 16 h; for product formed by GST-SrUGT76G1 from the acceptor (TLC): 50 μM substrate, UDP-glucose donor, 30° C., 2 h
# Method: Expression of recombinant UGT76G1 and UDP-glucosyltransferase activity assay: The full-length cDNA of SrUGT76G1 was cloned into pDEST15 to obtain GST-tag fused protein. The resulting expression vector was transformed into E. Coli BL21 (DE3)-derived Rosetta strain (Novagen) and grown under appropriate antibiotics. GST-tagged SrUGT76G1 recombinant protein was purified by glutathione agarose beads (ThermoFisher Scientific). About 1 μg of recombinant protein was used for enzyme assay with 50 μM of the substrate (dulcoside A or Reb A) in an assay buffer (50 mM HEPES, pH 7.5, 3 mM MgCl2, 10 μg/ml Bovine Serum Albumin). To initiate the reaction, a 1 mM UDP-glucose mixture (997.5 μM UDP-glucose and […] UDP-[^14C]-glucose, 2.78 kBq, Amersham Biosciences) was added. In vitro glucosyltransferase activity assays were performed as described by Richman et al. (2005). The assay was carried out at 30° C. for 2 h and extracted twice with 100 μl of water-saturated 1-butanol. Pooled fractions were dried in a vacuum centrifuge and resuspended in 10 μl water-saturated 1-butanol for thin layer chromatography (TLC) analysis. The TLC was performed with 10 μl of reaction products using chloroform:methanol:water (15:10:2 v/v/v) as the mobile phase on a silica gel-coated TLC plate (Fluka) in a mobile phase saturated glass chamber. SGs standards were run under the same condition. After air-drying, the image on the TLC plate was captured on a storage phosphor screen in a phosphorimager cassette (Bio-Rad) for 2-3 d and visualized on a Typhoon 9200 imager (Amersham Biosciences).
# HPLC analysis of in vitro glucosyltransferase activity assay mixture: In vitro glucosyltransferase activity assay was performed as indicated in the TLC analysis, but 5 mM of UDP-glucose was used without UDP-[^14C]-glucose and the incubation time was increased to 16 h. Samples were extracted 3 times with water-saturated 1-butanol and dried completely in a vacuum centrifuge. Dried samples were dissolved in MeOH for UHPLC analysis in accordance with the method mentioned for SGs content analysis.
product formed by GST-UGT76G1 from the acceptor (HPLC),product formed by GST-SrUGT76G1 from the acceptor (TLC),Structure (SMILES)
Reb I,,"C=C1C[C@@]23CC[C@H]4[C@@](C)(CCC[C@@]4(C)C(=O)O[C@@H]4O[C@H](CO)[C@@H](O)[C@H](O)[C@H]4O)[C@@H]2CC[C@]1(O[C@@H]1O[C@H](CO)[C@@H](O)[C@H](O[C@@H]2O[C@H](CO)[C@@H](O)[C@H](O)[C@H]2O)[C@H]1O[C@@H]1O[C@H](CO)[C@@H](O)[C@H](O)[C@H]1O)C3 [Reb A, rebaudioside A]"
Reb A,Reb A,C=C1C[C@@]23CC[C@H]4[C@@](C)(CCC[C@@]4(C)C(=O)O[C@@H]4O[C@H](CO)[C@@H](O)[C@H](O)[C@H]4O)[C@@H]2CC[C@]1(O[C@@H]1O[C@H](CO)[C@@H](O)[C@H](O)[C@H]1O[C@@H]1O[C@H](CO)[C@@H](O)[C@H](O)[C@H]1O)C3 [stevioside]
Reb C,Reb C,C=C1C[C@@]23CC[C@H]4[C@@](C)(CCC[C@@]4(C)C(=O)O[C@@H]4O[C@H](CO)[C@@H](O)[C@H](O)[C@H]4O)[C@@H]2CC[C@]1(O[C@@H]1O[C@H](CO)[C@@H](O)[C@H](O)[C@H]1O[C@@H]1O[C@@H](C)[C@H](O)[C@@H](O)[C@H]1O)C3 [dulcoside A]
